For orientation: IC50 means the concentration needed to halve the response being measured.

One assay deals with human TLR8 (Homo sapiens (Human), UniProt Q9NR97). The assay can be described thus: TLR8 inhibition reporter assay (HEK-Blue SEAP).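 Further: SEAP driven by IFN-β minimal promoter carrying NF-κB and AP-1 sites, compounds dosed 0.05 nM to 50 µM for 22 h, inhibition scaled between agonist-plus-DMSO and reference-inhibitor wells.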
Another assay concerns the target human TLR9 (Homo sapiens (Human), UniProt Q9NR96). As to the kind of experiment: TLR9 inhibition reporter assay (HEK-Blue SEAP). (In a reporter assay the amount or activity of a reporter protein is the signal.);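 further: SEAP driven by an IFN-β minimal promoter with NF-κB and AP-1 sites, read after 22 h, compounds dosed 0.05 nM–50 µM, inhibition scaled between agonist plus DMSO and reference-inhibitor wells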
A further assay addresses human TLR7 (Homo sapiens (Human), UniProt Q9NYK1). The assay can be described thus: TLR7 inhibition reporter assay (HEK-Blue SEAP). It counts as cell-based.
The mark [1] stands for this setting: TLR8 IC50, HEK-Blue human TLR8 cells, R848 15.9 μM.
The mark [2] stands for this setting: TLR9 IC50, HEK-Blue human TLR9 cells, ODN2006 5 nM.
Where [3] appears, read: HEK-Blue human TLR7 cells, gardiquimod 7.5 μM.
The mark [4] stands for this setting: read-out: TLR8 IC50, HEK-Blue cells overexpressing human TLR8, R848 15.9 μM stimulation, SEAP reporter.
The mark [5] stands for this setting: read-out: TLR9 IC50, HEK-Blue cells overexpressing human TLR9, ODN2006 5 nM stimulation, SEAP reporter.
Where [6] appears, read: HEK-Blue cells overexpressing human TLR7, gardiquimod 7.5 μM stimulation, SEAP reporter.

Each structure is given as a SMILES string. Like-named read-outs stand apart in the source and are kept apart here.

human TLR7, sequence (Q9NYK1 27-1049): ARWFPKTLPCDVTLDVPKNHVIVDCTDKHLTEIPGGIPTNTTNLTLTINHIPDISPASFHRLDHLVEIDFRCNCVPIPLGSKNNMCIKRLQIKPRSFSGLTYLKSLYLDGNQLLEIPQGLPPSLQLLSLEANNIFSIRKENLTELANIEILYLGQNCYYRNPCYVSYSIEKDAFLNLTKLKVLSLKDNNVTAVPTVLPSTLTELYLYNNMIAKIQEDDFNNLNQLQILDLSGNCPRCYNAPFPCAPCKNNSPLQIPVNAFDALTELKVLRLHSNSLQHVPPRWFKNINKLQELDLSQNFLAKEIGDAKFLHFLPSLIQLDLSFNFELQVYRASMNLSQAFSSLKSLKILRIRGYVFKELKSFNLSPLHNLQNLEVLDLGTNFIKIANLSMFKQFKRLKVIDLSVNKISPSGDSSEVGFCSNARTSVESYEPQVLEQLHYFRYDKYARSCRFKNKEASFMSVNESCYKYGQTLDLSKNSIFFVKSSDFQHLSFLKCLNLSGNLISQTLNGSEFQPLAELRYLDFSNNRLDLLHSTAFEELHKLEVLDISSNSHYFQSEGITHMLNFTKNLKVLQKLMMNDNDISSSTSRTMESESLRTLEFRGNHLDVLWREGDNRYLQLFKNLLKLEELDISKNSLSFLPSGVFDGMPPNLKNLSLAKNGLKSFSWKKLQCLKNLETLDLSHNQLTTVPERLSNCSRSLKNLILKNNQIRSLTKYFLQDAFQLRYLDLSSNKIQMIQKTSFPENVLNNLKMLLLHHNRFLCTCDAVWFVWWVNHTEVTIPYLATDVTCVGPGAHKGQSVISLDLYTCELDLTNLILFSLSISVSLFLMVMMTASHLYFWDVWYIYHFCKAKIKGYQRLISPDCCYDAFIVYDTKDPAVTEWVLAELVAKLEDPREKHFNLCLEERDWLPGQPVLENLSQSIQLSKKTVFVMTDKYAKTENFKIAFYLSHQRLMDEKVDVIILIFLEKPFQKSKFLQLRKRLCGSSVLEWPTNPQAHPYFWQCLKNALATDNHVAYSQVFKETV
human TLR9, sequence (Q9NR96 26-1032): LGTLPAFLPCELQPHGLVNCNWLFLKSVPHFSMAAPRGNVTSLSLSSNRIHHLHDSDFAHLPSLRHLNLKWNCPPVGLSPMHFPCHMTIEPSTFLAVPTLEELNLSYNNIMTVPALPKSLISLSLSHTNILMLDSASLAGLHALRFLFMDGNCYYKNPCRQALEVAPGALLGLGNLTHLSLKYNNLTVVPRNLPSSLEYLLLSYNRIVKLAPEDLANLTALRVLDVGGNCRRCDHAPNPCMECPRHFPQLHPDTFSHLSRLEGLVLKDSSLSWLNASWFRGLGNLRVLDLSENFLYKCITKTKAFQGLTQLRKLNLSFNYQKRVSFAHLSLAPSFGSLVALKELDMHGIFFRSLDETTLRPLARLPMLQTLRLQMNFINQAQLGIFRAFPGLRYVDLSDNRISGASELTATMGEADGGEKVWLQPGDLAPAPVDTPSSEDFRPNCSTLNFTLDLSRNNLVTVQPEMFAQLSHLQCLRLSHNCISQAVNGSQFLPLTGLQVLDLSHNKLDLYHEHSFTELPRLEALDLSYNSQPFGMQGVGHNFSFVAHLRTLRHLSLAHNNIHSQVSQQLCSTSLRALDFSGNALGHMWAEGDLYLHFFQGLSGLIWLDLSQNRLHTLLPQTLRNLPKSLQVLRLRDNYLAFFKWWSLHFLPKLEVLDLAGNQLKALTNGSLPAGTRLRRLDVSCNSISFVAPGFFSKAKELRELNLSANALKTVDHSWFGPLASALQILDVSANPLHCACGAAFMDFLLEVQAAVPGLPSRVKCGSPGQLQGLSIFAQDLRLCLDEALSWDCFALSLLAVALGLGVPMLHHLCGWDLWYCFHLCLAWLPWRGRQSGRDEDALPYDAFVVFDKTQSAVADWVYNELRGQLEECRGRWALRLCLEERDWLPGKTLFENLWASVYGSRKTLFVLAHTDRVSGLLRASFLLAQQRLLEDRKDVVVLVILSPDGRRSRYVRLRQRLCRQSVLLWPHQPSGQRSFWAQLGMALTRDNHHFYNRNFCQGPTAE
human TLR8, sequence (Q9NR97 27-1041): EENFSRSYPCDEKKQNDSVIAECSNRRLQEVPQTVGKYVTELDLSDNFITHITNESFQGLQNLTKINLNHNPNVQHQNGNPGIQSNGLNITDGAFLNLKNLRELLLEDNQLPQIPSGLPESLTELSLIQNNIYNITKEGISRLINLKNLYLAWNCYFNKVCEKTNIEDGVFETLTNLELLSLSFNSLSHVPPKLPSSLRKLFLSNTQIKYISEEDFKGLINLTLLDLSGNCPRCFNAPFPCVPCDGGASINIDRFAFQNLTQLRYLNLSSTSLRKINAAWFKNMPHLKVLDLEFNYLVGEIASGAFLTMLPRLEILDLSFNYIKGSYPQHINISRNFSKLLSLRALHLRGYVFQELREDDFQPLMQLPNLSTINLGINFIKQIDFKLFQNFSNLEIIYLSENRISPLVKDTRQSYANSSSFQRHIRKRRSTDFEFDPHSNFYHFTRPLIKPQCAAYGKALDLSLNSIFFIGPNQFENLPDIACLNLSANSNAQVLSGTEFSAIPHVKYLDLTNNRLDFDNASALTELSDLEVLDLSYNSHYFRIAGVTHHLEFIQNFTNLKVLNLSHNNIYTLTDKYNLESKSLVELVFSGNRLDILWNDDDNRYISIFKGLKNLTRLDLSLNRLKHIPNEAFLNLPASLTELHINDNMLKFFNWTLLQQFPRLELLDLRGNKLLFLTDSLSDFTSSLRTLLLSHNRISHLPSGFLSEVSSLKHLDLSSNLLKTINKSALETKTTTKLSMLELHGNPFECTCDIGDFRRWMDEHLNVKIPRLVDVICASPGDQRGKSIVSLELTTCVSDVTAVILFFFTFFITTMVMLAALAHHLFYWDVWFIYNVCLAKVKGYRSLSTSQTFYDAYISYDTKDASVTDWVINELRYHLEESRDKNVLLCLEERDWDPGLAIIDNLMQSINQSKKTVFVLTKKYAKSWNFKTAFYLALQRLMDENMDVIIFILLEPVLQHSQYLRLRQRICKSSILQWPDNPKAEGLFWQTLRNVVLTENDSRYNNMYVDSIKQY

Take `[2H]C([2H])([2H])N(C([2H])([2H])[2H])C([2H])([2H])C(=O)N1CCN(c2ccc3[nH]c(-c4cn5ncnc5c(C)c4C)c(C(C)C)c3n2)CC1` (single isomer, unassigned) [Example 888]: the figures for the IC50 at human TLR8 (setting [1]), on human TLR9 (setting [2]) and against human TLR7 (setting [3]) were 0.59 nM, 12200 nM and 1.2 nM, respectively.
As for `[2H]C([2H])(C(=O)N1CCN(c2ccc3[nH]c(-c4cn5ncnc5c(C)c4C)c(C(C)C)c3n2)CC1)N(C)C` (single isomer, unassigned) [Example 889], the IC50 at human TLR8 (setting [1]) was 0.76 nM; against human TLR9 (setting [2]) it was 9840 nM; against human TLR7 (setting [3]) it was 1.5 nM.
The corresponding values for `[2H]C([2H])(C(=O)N1C([2H])([2H])C([2H])([2H])N(c2ccc3[nH]c(-c4cn5ncnc5c(C)c4C)c(C(C)C)c3n2)C([2H])([2H])C1([2H])[2H])N(C)C` (single isomer, unassigned) [Example 890] are 1.4 nM, 14700 nM and 1.8 nM.
The corresponding values for `[2H]C([2H])([2H])N(C([2H])([2H])[2H])C([2H])([2H])C(=O)N1C([2H])([2H])C([2H])([2H])N(c2ccc3[nH]c(-c4cn5ncnc5c(C)c4C)c(C(C)C)c3n2)C([2H])([2H])C1([2H])[2H]` (single isomer, unassigned) [Example 891] are 0.93 nM, 18000 nM and 0.64 nM.
As to `Cc1c(-c2[nH]c3ccc(N4CC(NC5CCOCC5)C4)nc3c2C(C)C)cn2ncnc2c1C` [Example 1, 1-(2-(7,8-dimethyl-[1,2,4]triazolo[1,5-a]pyridin-6-yl)-3-isopropyl-1H-pyrrolo[3,2-b]pyridin-5-yl)-N-(tetrahydro-2H-pyran-4-yl)azetidin-3-amine], the concentration for half-maximal inhibition (IC50) came to 3.8 nM on human TLR8 (setting [4]), 7730 nM at human TLR9 (setting [5]) and 20 nM at human TLR7 (setting [6]).
In the same order, the values of `Cc1c(-c2[nH]c3ccc(N4CCNCC4)nc3c2C(C)C)cn2ncnc2c1C` [Example 2, 6-(3-isopropyl-5-(piperazin-1-yl)-1H-pyrrolo[3,2-b]pyridin-2-yl)-7,8-dimethyl-[1,2,4]triazolo[1,5-a]pyridine] are 0.27 nM, 7320 nM and 1.7 nM.
In the same order, the values of `COc1ccc(-c2[nH]c3ccc(C4CCN(C5CCN(CC(C)C)CC5)CC4)nc3c2C)cc1OC` [Example 5, 2-(3,4-dimethoxyphenyl)-5-(1′-isobutyl-[1,4′-bipiperidin]-4-yl)-3-methyl-1H-pyrrolo[3,2-b]pyridine] are 4060 nM, 37 nM and 471 nM.
In the same order, the values of `CCN(CCN(C)C)C(=O)c1nc2c(C(C)C)c(-c3cc(OC)c4ncnn4c3)[nH]c2cc1C` [Example 6, N-(2-(dimethylamino)ethyl)-N-ethyl-3-isopropyl-2-(8-methoxy-[1,2,4]triazolo[1,5-a]pyridin-6-yl)-6-methyl-1H-pyrrolo[3,2-b]pyridine-5-carboxamide] are 3.2 nM, 625 nM and 0.3 nM.
Turning to `CNC(=O)CNC1CCC(c2ccc3[nH]c(-c4cc(OC)c5ncnn5c4)c(C(C)C)c3n2)C1` (stereo not drawn) [Example 10, 2-((3-(3-isopropyl-2-(8-methoxy-[1,2,4]triazolo[1,5-a]pyridin-6-yl)-1H-pyrrolo[3,2-b]pyridin-5-yl)cyclopentyl)amino)-N-methylacetamide], the results for the IC50 on human TLR8 (setting [4]), on human TLR9 (setting [5]) and against human TLR7 (setting [6]) were 5.3 nM, 1050 nM and 0.42 nM, respectively.
Take `Cc1cc(-c2[nH]c3cc(F)c(C4CCNCC4)nc3c2C(C)C)cn2ncnc12` [Example 11, 6-(6-fluoro-3-isopropyl-5-(piperidin-4-yl)-1H-pyrrolo[3,2-b]pyridin-2-yl)-8-methyl-[1,2,4]triazolo[1,5-a]pyridine]: the IC50 at human TLR8 (setting [4]) was found to be 21 nM; at human TLR9 (setting [5]) it was 6790 nM; on human TLR7 (setting [6]), 1.7 nM.
`Cc1c(-c2[nH]c3ccc(N4CC(N(C)C)C4)nc3c2C(C)C)cn2ncnc2c1C` [Example 12]: the IC50 on human TLR8 (setting [4]) was 1.6 nM; at human TLR9 (setting [5]) it was 10100 nM; at human TLR7 (setting [6]) it was 10 nM.
Take `COc1cc(-c2[nH]c3ccc(N4CC(N(C)C)C4)nc3c2C(C)C)cn2ncnc12` [Example 13]: the IC50 came to 1.9 nM at human TLR8 (setting [4]), 5020 nM on human TLR9 (setting [5]) and 3.2 nM at human TLR7 (setting [6]).
The corresponding values for `Cc1c(-c2[nH]c3ccc(N4CC(N)C4)nc3c2C(C)C)cn2ncnc2c1C` [Example 14] are 4.2 nM, 4330 nM and 11 nM.
On to `Cc1c(-c2[nH]c3ccc(N4CC(NC(=O)CN(C)C)C4)nc3c2C(C)C)cn2ncnc2c1C` [Example 15], for which the IC50 was 4.3 nM on human TLR8 (setting [4]), 1940 nM on human TLR9 (setting [5]) and 7.3 nM against human TLR7 (setting [6]).
In the same order, the values of `COc1cc(-c2[nH]c3ccc(N4CC(N)C4)nc3c2C(C)C)cn2ncnc12` [Example 16] are 2.1 nM, 635 nM and 0.6 nM.
As to `COc1cc(-c2[nH]c3ccc(N4CC(NC(=O)CN(C)C)C4)nc3c2C(C)C)cn2ncnc12` [Example 17], the IC50 is 7.7 nM on human TLR8 (setting [4]), 1100 nM at human TLR9 (setting [5]) and 3.7 nM against human TLR7 (setting [6]).
As to `COc1cc(-c2[nH]c3ccc(N4CC(NCC(=O)N(C)C)C4)nc3c2C(C)C)cn2ncnc12` [Example 18], the concentration for half-maximal inhibition (IC50) at human TLR8 (setting [4]) stood at 14 nM; on human TLR9 (setting [5]), 1490 nM; on human TLR7 (setting [6]) it was 14 nM.
`Cc1c(-c2[nH]c3ccc(N4CC(N(C)C(=O)CN(C)C)C4)nc3c2C(C)C)cn2ncnc2c1C` [Example 19]: the figures for the IC50 at human TLR8 (setting [4]), at human TLR9 (setting [5]) and against human TLR7 (setting [6]) were 73 nM, 6020 nM and 125 nM, respectively.
In the same order, the values of `CNC1CN(c2ccc3[nH]c(-c4cn5ncnc5c(C)c4C)c(C(C)C)c3n2)C1` [Example 20] are 1.3 nM, 614 nM and 2.7 nM.
In the same order, the values of `Cc1c(-c2[nH]c3ccc(N4CC(N(C)CC(=O)N(C)C)C4)nc3c2C(C)C)cn2ncnc2c1C` [Example 21] are 46 nM, greater than 50000 nM and 91 nM.
The corresponding values for `Cc1c(-c2[nH]c3ccc(N4CC(NCC(=O)N(C)C)C4)nc3c2C(C)C)cn2ncnc2c1C` [Example 22] are 12 nM, 21100 nM and 56 nM.
Turning to `CNC1CN(c2ccc3[nH]c(-c4cn5ncnc5c(C)c4C)c(C(C)C)c3n2)C1` [Example 23], the figures for the IC50 on human TLR8 (setting [4]), on human TLR9 (setting [5]) and against human TLR7 (setting [6]) were greater than 3120 nM, greater than 50000 nM and greater than 3120 nM, respectively.
Regarding `Cc1c(-c2[nH]c3ccc(N4CC(N(C)C5CCOCC5)C4)nc3c2C(C)C)cn2ncnc2c1C` [Example 24], the IC50 stood at 2.7 nM on human TLR8 (setting [4]), 14000 nM at human TLR9 (setting [5]) and 40 nM on human TLR7 (setting [6]).
Take `Cc1c(-c2[nH]c3ccc(N4CC(N(C)C(=O)CN(C)C)C4)nc3c2C(C)C)cn2ncnc2c1C` [Example 25]: the IC50 at human TLR8 (setting [4]) was 117 nM; at human TLR9 (setting [5]) it was 11700 nM; against human TLR7 (setting [6]), 181 nM.
Consider `Cc1c(-c2[nH]c3ccc(N4CC(NCC(=O)N(C)C)C4)nc3c2C(C)C)cn2ncnc2c1C` [Example 26], for which the IC50 at human TLR8 (setting [4]) was 2130 nM; on human TLR9 (setting [5]), greater than 50000 nM; at human TLR7 (setting [6]), 1770 nM.
In the case of `COc1cc(-c2[nH]c3ccc(N4CC(NCC(=O)N(C)C)C4)nc3c2C(C)C)cn2ncnc12` [Example 27], the IC50 is greater than 3120 nM at human TLR8 (setting [4]), greater than 50000 nM at human TLR9 (setting [5]) and greater than 3120 nM against human TLR7 (setting [6]).
Take `COc1cc(-c2[nH]c3ccc(N4CC(N(C)C(=O)CN(C)C)C4)nc3c2C(C)C)cn2ncnc12` [Example 28]: the IC50 at human TLR8 (setting [4]) was 1500 nM; at human TLR9 (setting [5]), greater than 50000 nM; against human TLR7 (setting [6]), 263 nM.
Regarding `COc1cc(-c2[nH]c3ccc(N4CC(NC5CCOCC5)C4)nc3c2C(C)C)cn2ncnc12` [Example 29], the IC50 at human TLR8 (setting [4]) was 2.7 nM; on human TLR9 (setting [5]), 2830 nM; against human TLR7 (setting [6]) it was 4.6 nM.
Consider `COc1cc(-c2[nH]c3ccc(N4CC(NCC5(C)COC5)C4)nc3c2C(C)C)cn2ncnc12` [Example 30], for which the IC50 at human TLR8 (setting [4]) was 43 nM; on human TLR9 (setting [5]), 22600 nM; at human TLR7 (setting [6]), 70 nM.
In the same order, the values of `CNC1CN(c2ccc3[nH]c(-c4cc(OC)c5ncnn5c4)c(C(C)C)c3n2)C1` [Example 31] are 19 nM, 6060 nM and 13 nM.
For the compound `CC(C)c1c(-c2cn(C)c3ncccc23)[nH]c2ccc(N3CC(N)C3)nc12` [Example 32], the IC50 at human TLR8 (setting [4]) turned out to be 6.9 nM; at human TLR9 (setting [5]), 1880 nM; against human TLR7 (setting [6]), 7.3 nM.
In the same order, the values of `CC(C)c1c(-c2cn(C)c3ncccc23)[nH]c2ccc(N3CC(NC4CCOCC4)C3)nc12` [Example 33] are 1.9 nM, 1920 nM and 6.5 nM.
With `CC(C)c1c(-c2cn(C)c3ncccc23)[nH]c2ccc(N3CC(NCC(=O)N(C)C)C3)nc12` [Example 34], the values for the IC50 on human TLR8 (setting [4]), at human TLR9 (setting [5]) and on human TLR7 (setting [6]) were 6 nM, 1220 nM and 17 nM, respectively.
In the same order, the values of `CC(C)c1c(-c2cn(C)c3ncccc23)[nH]c2ccc(N3CC(N)C3)nc12` [Example 35] are 282 nM, 13800 nM and 589 nM.
The corresponding values for `CC(C)c1c(-c2cn(C)c3ncccc23)[nH]c2ccc(N3CC(NC4CCOCC4)C3)nc12` [Example 36] are greater than 3120 nM, 22100 nM and greater than 3120 nM.
As for `CC(C)c1c(-c2cn(C)c3ncccc23)[nH]c2ccc(N3CC(NCC(=O)N(C)C)C3)nc12` [Example 37], the figures for the IC50 at human TLR8 (setting [4]), at human TLR9 (setting [5]) and on human TLR7 (setting [6]) were 465 nM, greater than 50000 nM and 1270 nM, respectively.

Source of the values: patent US10544143B2, “4-azaindole compounds” (BRISTOL-MYERS SQUIBB COMPANY, priority 2017, dated 2020).
